Literature values in US20210267955A1, “LOW DOSE ORAL PHARMACEUTICAL COMPOSITION OF PIRFENIDONE OR SALT THEREOF” (Zenvision Pharma LLP, priority 2018, published 2021).

Conditions: methanol, ethyl alcohol, acetone, chloroform vs water and 1.0 N hydrochloric acid

In the case of `Cc1ccc(=O)n(-c2ccccc2)c1` [Pirfenidone, 5-methyl-1-phenyl-2-(1H)-pyridone], the “solubility (qualitative)” value is given as “more soluble in methanol, ethyl alcohol, acetone and chloroform than in water and 1.0 N hydrochloric acid”.
